Laboratory results as given in patent US12076340B2, “Use of trientine to deliver copper to ischemic tissue” (INNOLIFE CO., LTD., priority 2015, dated 2024).

Legend:
[1] = system: Rhesus monkey model of heart failure; details: 18 mg/kg/day oral two times daily, eight weeks; untreated group decreased; FIG. 12
Method: The ejection fraction (EF) of the left ventricular was evaluated with the Simpson's single-plane method. Left-ventricular end-diastolic volume (LVEDV) and end-systolic volume (LVESV) were directly recorded, and EF was calculated using as follows: EF=(LVEDV−LVESV)/LVEDV×100%.
(§1) Trientine treatment was subsequently conducted. In the trientine-treated group, trientine was administered to each monkey orally two times daily. The dose of trientine was 18 mg/kg/day. This treatment was continued for eight weeks. […] Cardiac functions and morphology were evaluated according to the schedule shown in FIG. 11 to assess therapeutic efficacy of trientine.

[2] = system: Sprague-Dawley rats with pathologic cardiac hypertrophy
Method: This example describes an in vivo experiment for assessing efficacy of the trientine therapy in Sprague-Dawley rats with pathologic cardiac hypertrophy. The rat model of pathologic cardiac hypertrophy was established by an ascending aortic constriction operation.
The rats were sedated by intraperitoneal injection of 10% chloral hydrate ([…]) for echocardiography measurements. At 4 months after the aortic constriction operation and at 1, 3 and 5 weeks after the trientine treatment, a series of echocardiograms were performed using an 11.5-MHz transducer (Vivid 7 Dimension, GE). Interventricular septum depth (IVSD) and left ventricular posterior wall depth (LVPWD) were obtained using two-dimensional mode by taking measurements of the short-axis cross-sectional areas and the left ventricular length.
The ejection fraction (EF) and shortening fraction (FS) of the left ventricular were evaluated with the Simpson's single-plane method. Left-ventricular end-diastolic volume (LVEDV), end-systolic volume (LVESV), end-diastolic interior diameter (LVIDd) and end-systolic interior diameter (LVIDs) were directly recorded. EF and FS were calculated according to the following formulas: EF=(LVEDV−LVESV)/LVEDV×100%, FS=(LVIDd−LVIDs)/LVIDd×100%
(§2) The aortic ascending constriction (AAC) group was divided into three groups: a control group (NS group) and two trientine treatment groups (Tr(H) group and Tr(L) group). Rats in the sham group were subjected to the same surgical procedure except for the steps of the aortic ascending constriction. The sham group rats were also divided into three groups: a control group (NS group) and two trientine treatment groups (Tr(H) group and Tr(L) group). Rats in the control groups were treated with a saline solution. Trientine was administered orally twice a day in the trientine treatment groups. Two doses of trientine (dose calculated based on trientine dihydrochloride) were administered, […]. The treatment was continued for 6 weeks.
(§3) Cardiac morphology and functions were evaluated by echocardiography, and plasma copper concentrations were measured (i.e. blood detection) to assess therapeutic efficacy of the trientine treatments according to the schedule shown in FIG. 7.

[3] = system: mouse model of myocardial ischemic infarction; details: 4 weeks
Method: (§4) In this experiment, a mouse model of myocardial ischemic infarction was established by a permanent coronary artery ligation operation.
(§5) Trientine treatment was administered to four groups of modelized mice via intragastric route twice a day at a dose of 16.75, 33.49, 55.94, or 78.25 mg/kg per day. This treatment was continued for 4 weeks.
Cardiac functions were evaluated by echocardiography to assess therapeutic efficacy of trientine. All mice were subjected to transthoracic echocardiographic evaluation with a 12 MHz transducer (i13L, Vivid7, GE Ultrasound). The ejection fraction (EF) of the left ventricular was evaluated with the Simpson's single-plane method. Left-ventricular end-diastolic volume (LVEDV) and end-systolic volume (LVESV) were directly recorded, and EF was calculated using as follows: EF=(LVEDV−LVESV)/LVEDV×100%.

[4] = system: Rhesus monkey model of heart failure; details: 18 mg/kg/day oral, eight weeks; FIG. 13
Method: as §1
(§6) Tissue samples were freshly frozen and stored at −80° ° C. before lyophilization. […] Ultrapure water was added to each vessel to dilute HNO3 to 2% for subsequent analyses of copper concentrations. Copper concentrations were determined by graphite furnace atomic absorption spectrophotometry (ICE3500, Thermo) according to the program shown in Table 1 of Example 3.
Copper concentration in the myocardium was determined by atomic absorption spectroscopy.

[5] = system: Sprague-Dawley rats with pathologic cardiac hypertrophy; details: AAC rats, trientine treatment for 6 weeks, AAC-Tr(H) and AAC-Tr(L) combined; FIG. 10A
Method: as §2, §3
Tissue samples were freshly frozen and stored at −80° C. before lyophilization. […] Ultrapure water was added to each vessel to dilute HNO3 to 2% for subsequent analyses of copper concentrations.

[6] = system: mouse model of myocardial ischemic infarction
Method: as §4, §5
as §6, with “−80°” for “−80° °”

[7] = AAC rats, oral twice a day, after 3 weeks of treatment

NCCNCCNCCN [trientine, triethylenetetramine]
left ventricular ejection fraction [1]: increased significantly
IVSD as compared to the sham groups ([2]; AAC rats treated for 5 weeks): nearly normal
LVPWD as compared to the sham groups ([2]; AAC rats treated for 5 weeks): nearly normal
interventricular septum depth (IVSD) [2, 7]: decreased significantly
left ventricular posterior wall depth (LVPWD) [2, 7]: decreased significantly
IVSD values over time (continuous monitoring) ([2]; treated AAC groups, control group increased steadily, FIG. 8A): significantly downward trend
LVPWD values over time (continuous monitoring) ([2]; treated AAC groups, control group increased steadily, FIG. 8B): significantly downward trend
left ventricular ejection fraction (EF) ([2]; trientine-treated groups, untreated groups showed significant downward trend, FIG. 9A): did not fluctuate very significantly
left ventricular shortening fraction (FS) ([2]; trientine-treated groups, untreated groups showed significant downward trend, FIG. 9B): did not fluctuate very significantly
dose at which the improvement ratio of ejection fraction reached a peak ([3]; doses tested 16.75, 33.49, 55.94, 78.25 mg/kg per day): 33.49 mg/kg per day
improvement of left ventricular ejection fraction at higher doses ([3]; intragastric twice a day, FIG. 15): decreased
cardiac function as measured by left ventricular ejection fraction, lower doses ([3]; intragastric twice a day, 16.75-78.25 mg/kg per day, FIG. 15): improved
copper concentration, border zone, compared to untreated group [4]: increased significantly
copper concentration, infarcted area, compared to untreated group [4]: increased significantly
copper concentration, remote areas, treated vs untreated group [4]: comparable
copper concentrations in the heart tissues [5]: increased
dose at which copper content in the infarct area was the highest ([6]; doses tested 16.75, 33.49, 55.94, 78.25 mg/kg per day, 4 weeks): 33.49 mg/kg per day
copper content of the infarcted area or ejection fraction at higher doses than 33.49 mg/kg per day ([6]; higher trientine doses tested (55.94, 78.25 mg/kg per day)): no further improvement
copper concentration in the infarcted area ([6]; intragastric twice a day, 4 weeks, FIG. 16): increased significantly
